How the values were obtained:
CLK1 = molecular target: T1, CLK1 (Homo sapiens, UniProt P49759); experiment: In vitro kinase assay (ADP-Glo), CLK1; type: biochemical; conditions: for IC50: 5 µM ATP; for activity for CLK1 relative to Cpd-1: stronger than Cpd-1
T1 construct: purchased Life Technologies
Description: (§1) The ATP concentration for each assay was adjusted to the Km for each kinase. Kinase assays for SRPK1–3 and CLK1 were performed using the ADP-Glo™ assay (Promega, Madison, WI). The kinase buffer contained 25 mM HEPES (pH 7.5), 10 mM magnesium acetate, 1 mM DTT, 0.01% BSA, and 0.01% Tween-20. The reaction mixtures contained 50 ng/mL SRPK1, 100 ng/mL SRPK2 or SRPK3, or 300 ng/mL CLK1 and 3 μM substrate peptide [GRSRSRSRSRSRSRSR] (Thermo Scientific). After incubating the enzyme, peptide, and compounds for 10 min, kinase reactions were initiated by adding ATP to a final concentration of 5 µM, followed by incubation for 30 min (15 min for SRPK1). The kinase reactions were terminated by adding ADP-Glo™ reagent (Promega). ADP was detected using a kinase detection reagent (Promega). The kinase activity of CLK2 was measured using the LANCE® Ultra assay (Perkin-Elmer, Waltham, MA) with ADP-Glo assay buffer. The reaction mixtures contained 100 ng/mL CLK2 and 50 nM ULight™-myelin basic protein (MBP) peptide (Perkin-Elmer). After incubating the enzyme, peptide, and compounds for 5 min, kinase reactions were initiated by adding ATP to a final concentration of 20 μM, followed by incubation for 30 min. The enzyme reactions were terminated by adding 30 mM EDTA, and phosphorylated ULight-MBP peptides were detected using a europium-labeled anti-phospho-MBP antibody diluted with detection buffer (Perkin-Elmer). The plates were read using an EnVision 2102 multilabel reader (Perkin-Elmer). We defined the absorbance of the reaction without enzyme as 100% inhibitory activity and that of the complete reaction mixture as 0% inhibitory activity. The IC50 values were estimated using the “Sigmoidal dose-response (variable slope)” equation in GraphPad Prism 5 software (GraphPad Software, San Diego, CA), with the maximum and minimum of the curve constrained to 100 and 0, respectively.

CLK2 = molecular target: T2, CLK2 (Homo sapiens, UniProt P49760); experiment: In vitro kinase assay (LANCE Ultra), CLK2; type: biochemical; conditions: for IC50: 20 µM ATP; for activity for CLK2 relative to Cpd-1: stronger than Cpd-1
T2 construct: purchased Life Technologies
Description: as §1

SRPK2 = molecular target: T3, SRPK2 (Homo sapiens, UniProt P78362); experiment: In vitro kinase assay (ADP-Glo), SRPK2; type: biochemical; conditions: 5 µM ATP
T3 construct: purchased Millipore
Description: as §1

MDA-MB-468 cells = experiment: Cell viability assay (CellTiter-Glo), MDA-MB-468; type: cell-based; conditions: Homo sapiens; MDA-MB-468 breast cancer, 72 h
Description: MDA-MB-468 cells (5 × 10^3) were seeded into 96-well plates and incubated overnight in 50 μL of culture medium. Next, 50 µL of each compound diluted in culture medium was added to the wells. After 72 h of incubation, viability was determined using the CellTiter-Glo Luminescent Cell Viability Assay (Promega) according to the manufacturer’s instructions. The GI50 values were calculated using GraphPad Prism 5 software with a sigmoid dose-response curve.

A549 cells = experiment: Cell viability assay, A549; type: cell-based; conditions: Homo sapiens; A549 non-small cell lung cancer
COLO205 cells = experiment: Cell viability assay, COLO205; type: cell-based; conditions: Homo sapiens, COLO 205; COLO205 colorectal cancer
HCT-116 cells = experiment: Cell viability assay, HCT-116; type: cell-based; conditions: Homo sapiens; HCT-116 colorectal cancer
NCI-H23 cells = experiment: Cell viability assay, NCI-H23; type: cell-based; conditions: Homo sapiens; NCI-H23 non-small cell lung cancer
SW620 cells = experiment: Cell viability assay, SW620; type: cell-based; conditions: Homo sapiens, SW-620; SW620 colorectal cancer
COLO320DM cells = experiment: Cell viability assay, COLO320DM; type: cell-based; conditions: Homo sapiens, COLO 320DM; COLO320DM colorectal cancer
[1] = system: S6K pre-mRNA splicing in A549 cells; experiment: S6K pre-mRNA splicing alteration (quantitative RT-PCR), A549; type: cell-based, human; conditions: ratio of S6K exons 6–8 to exons 6–7 is 0.1
Source text: (§2) To examine whether inhibition of a particular CLK and/or SRPK contributed to the alternative splicing of S6K pre-mRNA, we used an additional series of compounds with the same scaffold as Cpd-1, Cpd-2, and Cpd-3, but different selectivity. First, we examined the correlation between the enzymatic activity and the level of splicing alterations of S6K pre-mRNA for the individual compounds. We used the exon 7-skipped type of S6K variant to calibrate Rc0.1 values, i.e., the concentrations that induced 10% of the copy number of an alternative isoform compared with that of the canonical isoform. The inhibition of CLK1 and CLK2 activities was correlated with the splicing alteration activities (Rc0.1) (R^2 = 0.3353 and 0.4255, respectively). In contrast, there was no correlation between the activities of SRPKs and the Rc0.1 values (R^2 < 0.0468) (Fig. 3A). Next, we compared the levels of splicing alteration and growth inhibition of the compounds. […] Similar correlations between Rc0.1 and GI50 values were also obtained in seven different cancer cell lines after treatment with Cpd-2 or Cpd-3 (Table 2).
(§3) Total RNA was extracted using an RNeasy Miniprep Kit (Qiagen, Valencia, CA) in accordance with the manufacturer’s instructions. Reverse transcription was performed using a TaqMan Reverse Transcription Reagents Kit (Applied Biosystems, Carlsbad, CA). The PCR conditions were as follows: one cycle of 5 min at 95°C; 35 cycles of 30 s at 94°C, 30 s at 60°C, and 30 s at 72°C; and one cycle of 10 min at 72°C. The PCR products were separated in 2% agarose gels. Real-time PCR was performed using a TaqMan MGB probe (Applied Biosystems), and the amount of FAM fluorescence was measured as a function of the PCR cycle number (CT) using an ABI 7900 Real-time PCR System (Applied Biosystems). The expression level of each mRNA was normalized by that of GAPDH mRNA.

[2] = system: S6K pre-mRNA splicing in SW620 cells; experiment: S6K pre-mRNA splicing alteration (quantitative RT-PCR), SW620; type: cell-based, human; conditions: ratio of S6K exons 6–8 to exons 6–7 is 0.1
Source text: as §2, §3

[3] = system: nuclear speckles in MDA-MB-468 cells; experiment: Immunofluorescence of nuclear speckles (anti-SC35); type: cell-based, human; conditions: MDA-MB-468, 6 h, anti-SC35 antibody
Description: MDA-MB-468 cells were fixed with 4% paraformaldehyde for 30 min at room temperature, washed with PBS, blocked with 5% BSA in PBS, incubated with an anti-SC35 antibody (Abcam, Cambridge, UK) for 1 h at room temperature, and incubated with a secondary antibody for 1 h. The cells were mounted and counterstained with DAPI (Vector Laboratories, Burlingame, CA) and detected using fluorescence microscopy.

T2 sequence (P49760 whole entry): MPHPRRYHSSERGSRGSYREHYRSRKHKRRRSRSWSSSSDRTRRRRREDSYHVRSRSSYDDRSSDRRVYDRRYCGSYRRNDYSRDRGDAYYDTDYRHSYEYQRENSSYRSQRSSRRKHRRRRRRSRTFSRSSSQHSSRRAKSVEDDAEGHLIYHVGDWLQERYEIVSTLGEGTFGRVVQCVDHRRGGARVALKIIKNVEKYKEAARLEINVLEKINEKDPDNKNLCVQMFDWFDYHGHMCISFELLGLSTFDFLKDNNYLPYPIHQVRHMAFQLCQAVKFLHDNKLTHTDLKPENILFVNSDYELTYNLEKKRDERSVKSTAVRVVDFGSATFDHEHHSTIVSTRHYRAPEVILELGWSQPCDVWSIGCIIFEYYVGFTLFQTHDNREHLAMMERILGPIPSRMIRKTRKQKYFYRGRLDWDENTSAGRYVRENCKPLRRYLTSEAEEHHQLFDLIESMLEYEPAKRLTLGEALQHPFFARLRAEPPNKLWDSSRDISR
T1 sequence (P49759 whole entry): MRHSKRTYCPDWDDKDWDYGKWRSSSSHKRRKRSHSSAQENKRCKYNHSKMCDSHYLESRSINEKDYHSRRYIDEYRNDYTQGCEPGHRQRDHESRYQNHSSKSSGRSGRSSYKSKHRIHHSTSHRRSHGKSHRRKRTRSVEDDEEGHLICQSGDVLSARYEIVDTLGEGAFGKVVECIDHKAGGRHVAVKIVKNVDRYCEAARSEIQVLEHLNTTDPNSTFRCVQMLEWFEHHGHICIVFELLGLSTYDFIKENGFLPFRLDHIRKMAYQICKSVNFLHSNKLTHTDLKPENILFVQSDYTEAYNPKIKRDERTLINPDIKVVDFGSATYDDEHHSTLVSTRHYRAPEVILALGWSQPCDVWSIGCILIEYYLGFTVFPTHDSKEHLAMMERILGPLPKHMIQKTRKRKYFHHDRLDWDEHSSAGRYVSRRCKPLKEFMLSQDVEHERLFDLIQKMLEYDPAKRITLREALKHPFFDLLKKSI
T3 sequence (P78362 whole entry): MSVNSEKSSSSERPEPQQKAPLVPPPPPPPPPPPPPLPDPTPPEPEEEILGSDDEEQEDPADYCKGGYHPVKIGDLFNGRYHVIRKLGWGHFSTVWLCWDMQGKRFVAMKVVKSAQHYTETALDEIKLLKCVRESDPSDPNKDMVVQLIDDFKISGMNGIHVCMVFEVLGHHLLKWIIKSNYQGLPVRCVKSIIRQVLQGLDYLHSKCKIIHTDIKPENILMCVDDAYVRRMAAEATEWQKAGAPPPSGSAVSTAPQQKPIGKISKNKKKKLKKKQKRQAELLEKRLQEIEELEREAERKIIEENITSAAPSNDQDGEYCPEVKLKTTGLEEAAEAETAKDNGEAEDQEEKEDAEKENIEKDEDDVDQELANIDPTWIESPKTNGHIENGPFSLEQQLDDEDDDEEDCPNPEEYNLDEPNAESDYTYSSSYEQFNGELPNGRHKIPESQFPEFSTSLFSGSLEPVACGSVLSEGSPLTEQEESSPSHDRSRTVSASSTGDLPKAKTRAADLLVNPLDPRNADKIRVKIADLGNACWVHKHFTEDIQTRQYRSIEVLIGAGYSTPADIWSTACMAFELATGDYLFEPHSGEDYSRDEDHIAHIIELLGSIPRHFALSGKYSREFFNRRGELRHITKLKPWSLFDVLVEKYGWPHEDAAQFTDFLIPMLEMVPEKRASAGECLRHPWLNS

Row | IC50 (CLK1) | IC50 (CLK2) | IC50 (SRPK2) | GI50 (MDA-MB-468 cells) | GI50 (A549 cells) | GI50 (COLO205 cells) | GI50 (HCT-116 cells) | GI50 (NCI-H23 cells) | GI50 (SW620 cells) | GI50 (COLO320DM cells) | activity for CLK1 relative to Cpd-1 (CLK1) | activity for CLK2 relative to Cpd-1 (CLK2) | Structure (SMILES) | Rc0.1 [1] | Rc0.1 [2] | effect on nuclear speckles [3]
1 | 16 nM | 45 nM | 75 nM | 30500 nM | 102000 nM | 27300 nM | 70200 nM | 32000 nM | 41800 nM | 43000 nM |  |  | CC(C)(CCc1nnn[nH]1)c1ccc(C(=O)Nc2cn3cc(C(F)(F)F)ccc3n2)cc1 [Cpd-1, 4-(2-methyl-4-(1H-tetrazol-5-yl)butan-2-yl)-N-(6-(trifluoromethyl)imidazo[1,2-a]pyridin-2-yl)benzamide] | >10 µM | >10 µM | induced enlargement of nuclear speckles
2 | 1.1 nM | 2.4 nM | 310 nM | 3000 nM | 1900 nM | 1700 nM | 2200 nM | 1400 nM | 2000 nM | 600 nM | 10 fold | 10 fold | CC(C)(C)c1ccc(C(=O)Nc2cn3cc(-c4cn[nH]c4)ccc3n2)cn1 [Cpd-2, 6-tert-butyl-N-(6-(1H-pyrazol-4-yl)imidazo[1,2-a]pyridin-2-yl)nicotinamide] | 0.3 µM | 1.2 µM | induced enlargement of nuclear speckles
3 | 1.1 nM | 2.1 nM | 260 nM | 3400 nM | 2600 nM | 2100 nM | 2500 nM | 2200 nM | 2900 nM | 1500 nM | 10 fold | 10 fold | CC(C)(CO)c1ccc(C(=O)Nc2cn3cc(-c4cn[nH]c4)ccc3n2)cc1 [Cpd-3, 4-(1-hydroxy-2-methylpropan-2-yl)-N-(6-(1H-pyrazol-4-yl)imidazo[1,2-a]pyridin-2-yl)benzamide] | 1.2 µM | 1.4 µM | induced enlargement of nuclear speckles

Source: paper PMC4291223, “Inhibitors of CLK Protein Kinases Suppress Cell Growth and Induce Apoptosis by Modulating Pre-mRNA Splicing” (PLoS ONE, 2015)
